Test results: article PMC4890880 (ACS infectious diseases, 2016)
Read-outs that look alike come from different tables or passages of the source.

Tested on: HepG2-A16-CD81EGFP cells
Conditions: for IC50: read-out: Tox_IC50, HepG2 cytotoxicity
[1] = sheet 2nd round, maximal inhibition in dose response
[2] = 2nd round, maximal inhibition in dose series

Row | Structure (SMILES) | IC50 (sheet 2nd round) [µM] | Tox_max_inhibition (%) [1] [%] | also measured
1 | Cc1ccccc1-c1ccc2c(c1)O[C@H](CN(C)C(=O)Nc1ccc(C(F)(F)F)cc1)[C@@H](C)CN([C@@H](C)CO)S2(=O)=O [BRD-K68538844-001-01-1] | > 10 | 35 | 
2 | C[C@@H]1CN([C@@H](C)CO)C(=O)c2cc(NC(=O)Nc3ccc4c(c3)OCO4)ccc2O[C@@H](C)CCCCO[C@H]1CN(C)S(=O)(=O)c1ccccc1 [BRD-K69357983-001-01-6] |  |  | Tox_max_inhibition (%) [2]: 9%; IC50 (2nd round, unit inferred): > 10 µM
3 | N#C[C@H]1[C@H](c2ccc(-c3cccc(F)c3)cc2)[C@@H](CO)N1C(=O)NC1CCCC1 [BRD-K69441790-001-01-1] | 9.7 | 57 | 
4 | Fc1cccc(CN2C[C@@H]3N[C@H](C2)C3c2ccc(/C=C/c3ccccc3)cc2)c1 (stereo partly drawn) [BRD-K69682028-019-01-6] |  |  | IC50 (sheet "2nd round"): > 10 µM; Tox_max_inhibition (%) (sheet "2nd round"): 16%
5 | CCCNC(=O)N1[C@H](C#N)[C@@H](c2ccccc2C2=CCCCC2)[C@@H]1CO [BRD-K70760948-001-01-2] |  |  | Tox_max_inhibition (%) [2]: 10%; IC50 (2nd round, unit inferred): > 10 µM
6 | C[C@H](CO)N1C[C@H](C)[C@@H](CN(C)Cc2ccccc2)Oc2c(NC(=O)Cc3cn(C)c4ccccc34)cccc2C1=O [BRD-K71196168-001-01-1] |  |  | IC50 (sheet "2nd round"): > 10 µM; Tox_max_inhibition (%) (sheet "2nd round"): 44%
7 | COc1ccccc1C#Cc1ccc([C@H]2[C@@H](C#N)N(C(=O)C3CCCC3)[C@H]2CO)cc1 [BRD-K71730412-001-01-1] | > 10 | 13 | 
8 | C[C@@H]1CN([C@@H](C)CO)C(=O)c2cc(N(C)C)ccc2O[C@@H](C)CCCCO[C@H]1CN(C)S(=O)(=O)c1ccc(F)cc1 [BRD-K72173400-001-01-7] | > 10 | 6 | 
9 | COc1ccccc1-c1ccc2c(c1)[C@@H]1[C@@H](CCN1C(=O)C1CCC1)[C@H](CO)N2 [BRD-K72492940-001-01-8] | > 10 | 18 | 
10 | N#Cc1cccc(-c2ccc3c(c2)[C@H]2[C@H](CCN2S(=O)(=O)c2ccc(F)cc2)[C@@H](CO)N3)c1 [BRD-K73006286-001-01-7] | > 10 | 15 | 
11 | C[C@H]1CN([C@@H](C)CO)C(=O)c2cccc(NC(=O)c3ccc(-c4nccs4)cc3)c2O[C@H]1CN(C)C(=O)Nc1ccc(C(F)(F)F)cc1 [BRD-K73614094-001-01-0] |  |  | Tox_max_inhibition (%) [2]: 12%; IC50 (2nd round, unit inferred): > 10 µM
12 | CCCC(=O)N1CCC2(CC1)CN(S(=O)(=O)c1ccc(C)cc1)[C@@H](CO)c1[nH]c3cc(OC)ccc3c12 [BRD-K73703617-001-01-9] |  |  | Tox_max_inhibition (%) [2]: 12%; IC50 (2nd round, unit inferred): > 10 µM
13 | CCCNC(=O)N1[C@H](C#N)[C@H](c2ccccc2-c2cccc(C)c2)[C@@H]1CO [BRD-K74392214-001-01-7] | > 10 | 7.44 | 
14 | N#C[C@H]1N[C@H](CO)[C@H]1c1ccc(C#CC2CCCCC2)cc1 [BRD-K74656908-001-01-6] | > 10 | 6 | 
15 | C[C@H](CO)N1C[C@H](C)[C@H](CN(C)C(=O)Nc2ccc(C(F)(F)F)cc2)Oc2c(NC(=O)c3ccc(-c4nccs4)cc3)cccc2C1=O [BRD-K74949371-001-01-3] | > 10 | 6.39 | 
16 | OC[C@@H]1[C@H](c2ccc(-c3ccc(F)cc3)cc2)[C@@H](CNC2CCCC2)N1CCC(F)(F)F [BRD-K76178468-001-01-1] | > 10 | 22 | 
17 | CCCNC(=O)Nc1ccc2c(c1)OC[C@@H](C)N(Cc1ccccc1)C[C@@H](C)[C@H](OC)CN(C)C2=O [BRD-K76980944-001-01-4] |  |  | Tox_max_inhibition (%) [2]: 6%; IC50 (2nd round, unit inferred): > 10 µM
18 | C[C@H](CO)N1C[C@H](C)[C@H](CN(C)C(=O)C2CCCCC2)Oc2ncc(C#Cc3cccc(F)c3)cc2C1=O [BRD-K77264696-001-01-2] | > 10 | 30 | 

Row | Structure (SMILES) | IC50 (sheet 2nd round) [µM] | Tox_max_inhibition (%) [1] [%] | also measured
19 | C[C@@H]1CN([C@@H](C)CO)C(=O)c2cc(C#Cc3ccccc3)cnc2O[C@H]1CN(C)C(=O)c1ccccc1 [BRD-K77826636-001-01-1] |  |  | Tox_max_inhibition (%) [2]: 20%; IC50 (2nd round, unit inferred): > 10 µM
20 | C[C@H](CO)N1C[C@H](C)[C@@H](CN(C)S(=O)(=O)c2ccccc2)OCCCC[C@H](C)Oc2ccc(NC(=O)Nc3ccc4c(c3)OCO4)cc2C1=O [BRD-K78605373-001-01-5] |  |  | Tox_max_inhibition (%) [2]: 10%; IC50 (2nd round, unit inferred): > 10 µM
21 | C[C@@H]1CCCCO[C@@H](CN(C)C(=O)Nc2cccc3ccccc23)[C@H](C)CN([C@H](C)CO)C(=O)c2cc(NC(=O)CCC(F)(F)F)ccc2O1 [BRD-K78692607-001-01-1] | > 10 | 10 | 
22 | COc1ccc(NC(=O)N2CCCCN3[C@H](CN(C)C)[C@H](c4ccc(C#Cc5ccccc5)cc4)[C@@H]3C2)cc1 [BRD-K78727929-001-08-1] | 8.47 | 100 | 
23 | N#C[C@H]1N[C@H](CO)[C@H]1c1ccc(C#Cc2ccccc2F)cc1 [BRD-K80648041-001-01-3] | > 10 | 11 | 
24 | CCCNC(=O)N1[C@H](C#N)[C@H](c2ccc(-c3cccc(OC)c3)cc2)[C@@H]1CO [BRD-K80906650-001-01-7] |  |  | IC50 (sheet "2nd round"): > 10 µM; Tox_max_inhibition (%) (sheet "2nd round"): 45%
25 | CCCNC(=O)N1[C@H](C#N)[C@H](c2ccc(-c3ccccc3F)cc2)[C@@H]1CO [BRD-K81164606-001-02-5] |  |  | Tox_max_inhibition (%) [2]: 43%; IC50 (2nd round, unit inferred): > 10 µM
26 | N#C[C@H]1[C@@H](c2ccc(C3=CCCCC3)cc2)[C@@H](CO)N1C(=O)Nc1ccccc1F [BRD-K81680265-001-01-4] |  |  | Tox_max_inhibition (%) [2]: 11%; IC50 (2nd round, unit inferred): > 10 µM
27 | C(=C\c1ccc(C2[C@@H]3CN(Cc4nccs4)C[C@H]2N3)cc1)/c1ccccc1 (stereo partly drawn) [BRD-K82593502-019-01-3] |  |  | Tox_max_inhibition (%) [2]: 13%; IC50 (2nd round, unit inferred): > 10 µM
28 | COc1ccc(NC(=O)N2CCCCN3[C@H](CO)[C@H](c4ccc(C#Cc5ccccc5)cc4)[C@@H]3C2)cc1 [BRD-K83953444-001-02-5] | > 10 | 55 | 
29 | O=C(Nc1ccccc1F)N1CCCCN2[C@H](CO)[C@H](c3ccc(/C=C/c4ccccc4)cc3)[C@@H]2C1 [BRD-K85670919-001-01-1] | > 10 | 13 | 
30 | O=C(NCC[C@H]1CC[C@H](NC(=O)c2ccccc2F)[C@@H](CO)O1)c1cnccn1 [BRD-K85850546-001-01-0] | > 10 | 9 | 
31 | N#C[C@H]1[C@@H](c2ccc(-c3cccnc3)cc2)[C@@H](CO)N1C(=O)Nc1ccc(F)cc1 [BRD-K86354270-001-02-2] | > 10 | 14 | 
32 | COc1ccccc1C#Cc1ccc([C@H]2[C@@H](C#N)N(C(=O)C3CCCCC3)[C@H]2CO)cc1 [BRD-K87117984-001-01-1] | 9.79 | 57 | 
33 | C[C@@H]1CCCCO[C@@H](CN(C)S(=O)(=O)c2ccccc2)[C@H](C)CN([C@H](C)CO)C(=O)c2cc(NC(=O)Nc3ccc4c(c3)OCO4)ccc2O1 [BRD-K87351697-001-01-4] | > 10 | 5 | 
34 | C[C@@H]1CN([C@@H](C)CO)C(=O)Cc2cc(NC(=O)C3CCCCC3)ccc2O[C@H]1CN(C)Cc1ccc(Cl)c(Cl)c1 [BRD-K87663528-001-01-7] |  |  | IC50 (sheet "2nd round"): > 10 µM; Tox_max_inhibition (%) (sheet "2nd round"): 58%
35 | CO[C@@H]1CN(C)C(=O)c2ccc(NC(=O)Nc3ccccc3F)cc2OC[C@@H](C)N(CC2CC2)C[C@H]1C [BRD-K88085458-001-01-6] |  |  | IC50 (sheet "2nd round"): > 10 µM; Tox_max_inhibition (%) (sheet "2nd round"): 6%
36 | CCCNC(=O)N1[C@H](C#N)[C@H](c2ccc(-c3ccccc3F)cc2)[C@H]1CO [BRD-K88402291-001-01-4] |  |  | IC50 (sheet "2nd round"): > 10 µM; Tox_max_inhibition (%) (sheet "2nd round"): 3%
